Laboratory results reported in patent publication US20190241569A1, “3-(ARYL OR HETEROARYL) METHYLENEINDOLIN-2-ONE DERIVATIVES AS INHIBITORS OF CANCER STEM CELL PATHWAY KINASES FOR THE TREATMENT OF CANCER” (Boston Biomedical, Inc., priority 2013, published 2019).
Where two headings read alike, the source gives them in different places.

What was measured:
FaDu CSC = test: Cancer stem cells, Cell Titer-Glo 72 hours (Test Example 3); assay type: cell-based; conditions: Homo sapiens, FaDu, 72 h
ACHN = test: Bulk cancer cells, Cell Titer-Glo 72 hours (Test Example 2); assay type: cell-based; conditions: Homo sapiens, ACHN, 72 h
Description: (§1) Tubes of 3× drug (60 uM in 500 uL complete media) were prepared from 5 mM stock solutions in DMSO. […] To treat cells, 50 uL of drug from the dilution plate was removed and added to the cell plates. […] Cells were harvested 72 hours after drug addition using Cell Titer-Glo (Promega) and luminescence measured on a plate reader.

FaDu = test: as above; assay type: cell-based; conditions: Homo sapiens
Description: as §1

human RIOK2 protein = target: T1, human RIOK2 protein (Homo sapiens, UniProt Q9BVS4); test: RIOK2 autophosphorylation ELISA (Test Example 4); assay type: biochemical; conditions: for inhibition at 10 µM: read-out: Inhibitory activity at 10 μM (%); for inhibition at 1 µM: read-out: Inhibitory activity at 1 μM (%)
T1 construct: glutathione S-transferase is fused to N-terminal of a full-length human RIOK2 protein; GST (glutathione S-transferase) (N); purchased CarnaBio, Inc; host or cells: baculovirus-Sf21 cell expression system
Description: A protein in which glutathione S-transferase is fused to N-terminal of a full-length human RIOK2 protein was used as a recombinant human RIOK2 protein. The protein was prepared using a baculovirus-Sf21 cell expression system from CarnaBio, Inc. A kinase reaction solution was prepared by mixing 25 μg/mL of the recombinant human RIOK2 protein and 100 μM of ATP in 20 μl of kinase reaction buffer (50 mM Tris-HCl, 10 mM MgCl2, 10 mM MnCl2, 1 mM DTT, 0.01% Brij, 1× PhosSTOP (manufactured by Roche Applied Science)), and was incubated at a temperature of 30° C. for 1 hour. After adding 30 μl of 40 mM EDTA solution to this kinase reaction solution, the kinase reaction solution was transferred to a MaxiSorp 96 well plate (manufactured by Nunc). Thereafter, phosphorylated human RIOK2 protein was allowed to adsorb onto the wells by leaving the plate in a refrigerator overnight.
The following day, the supernatant was removed, and the wells were washed three times with ELISA buffer (20 mM Tris-HCl, 150 mM NaCl, 0.2% Tween-20, 0.1% BSA). Thereafter, 100 μl of Blocking-One P (product name; manufactured by Nacalai Tesque, Inc.) was applied to the wells, and a blocking treatment was performed for 1 hour at room temperature. […] After further washing the wells, a secondary antibody, anti-rabbit IgG conjugated with horseradish peroxidase (manufactured by Jackson ImmunoResearch; 1/4000 ELISA buffer-diluted solution), was applied to the wells, and incubation was performed for 30 minutes at room temperature. After washing the wells once again, 50 μl of tetramethyl benzidine (TMB) aqueous solution (manufactured by Nacalai Tesque, Inc.) was applied to the wells, and a coloring reaction was performed for 30 minutes at room temperature. Thereafter, the coloring reaction was stopped by adding 50 μl of 2M H2SO4 to the wells. An absorptiometric level of 450 nm was measured in each well using ARVO SX (manufactured by Wallac).

A549 = test: Bulk cancer cells, Cell Titer-Glo 72 hours (Test Example 2); assay type: cell-based; conditions: Homo sapiens
Description: as §1

A549 CSC = test: Cancer stem cells, Cell Titer-Glo 72 hours (Test Example 3); assay type: cell-based; conditions: Homo sapiens
p-AMPK Thr172 = test: Kinase inhibition, Western blot in HeLa cells (Test Example 5); assay type: cell-based; conditions: Homo sapiens, 6 hours, DMSO = 100, read-out: p-AMPK Relative Intensity (%)
Description: (§2) HeLa cells were treated with 5 uM of the indicated compound for 6 hours. Following compound incubation, cells were washed twice with ice-cold PBS and lysed in lysis buffer (50 mM HEPES, pH 7.5, 1% Nonidet P40, 150 mM NaCl, 1 mM EDTA, 1× protease inhibitor cocktail (Promega)). 30 micrograms of soluble protein was separated by SDS-PAGE and transferred to PVDF membranes. Primary antibodies against p-AMPK Thr172, p-RPS6 Ser235/236, p-RPS6 Ser240/244, and Tubulin (Cell Signaling Technology) were used. The antigen-antibody complexes were visualized by enhanced chemiluminescence (BioRad). The results are shown below in Tables 17A-17E.

p-RPS6 Ser235/236 = test: as above; assay type: cell-based; conditions: Homo sapiens, 6 hours, DMSO = 100, read-out: p-RPS6 Ser235/236 Relative Intensity (%)
Description: as §2

p-RPS6 Ser240/244 = test: as above; assay type: cell-based; conditions: Homo sapiens, 6 hours, DMSO = 100, read-out: p-RPS6 Ser240/244 Relative Intensity (%)
Description: as §2

ACHN CSC = test: Cancer stem cells, Cell Titer-Glo 72 hours (Test Example 3); assay type: cell-based; conditions: Homo sapiens, ACHN, 72 h

T1 sequence (Q9BVS4 whole entry, the tested form may be a part): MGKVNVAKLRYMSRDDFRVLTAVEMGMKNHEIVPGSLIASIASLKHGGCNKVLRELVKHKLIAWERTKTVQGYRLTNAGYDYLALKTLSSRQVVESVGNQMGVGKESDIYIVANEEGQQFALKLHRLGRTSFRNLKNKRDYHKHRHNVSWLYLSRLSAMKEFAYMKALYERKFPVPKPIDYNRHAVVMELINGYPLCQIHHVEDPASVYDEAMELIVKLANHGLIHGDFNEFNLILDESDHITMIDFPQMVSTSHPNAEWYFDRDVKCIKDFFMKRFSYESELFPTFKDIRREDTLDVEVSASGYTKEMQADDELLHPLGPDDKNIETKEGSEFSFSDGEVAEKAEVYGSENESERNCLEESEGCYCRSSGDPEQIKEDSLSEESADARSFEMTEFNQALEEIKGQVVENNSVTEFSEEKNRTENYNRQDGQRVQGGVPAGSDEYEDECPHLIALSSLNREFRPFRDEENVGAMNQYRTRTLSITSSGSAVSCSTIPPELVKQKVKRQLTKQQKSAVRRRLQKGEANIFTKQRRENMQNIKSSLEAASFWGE

| IC50 (FaDu CSC) | IC50 (ACHN) | IC50 (FaDu) | inhibition at 10 µM (human RIOK2 protein) | IC50 (A549) | inhibition at 1 µM (human RIOK2 protein) | Structure (SMILES) | also measured |
| --- | --- | --- | --- | --- | --- | --- | --- |
| 1.2 µM | 7.6 µM | 4.74 µM | 14% | – | – | CCN(CC)CCNC(=O)c1c(C)[nH]c(/C=C2\C(=O)Nc3ccc(-c4ccc(-c5ccccc5)s4)cc32)c1C [Example 1, (Z)-N-(2-(diethylamino)ethyl)-2,4-dimethyl-5-((2-oxo-5-(5-phenylthiophen-2-yl)indolin-3-ylidene)methyl)-1H-pyrrole-3-carboxamide] | – |
| 0.23 µM | – | 14.1 µM | 19% | 48.9 µM | – | Cc1[nH]c(/C=C2\C(=O)Nc3ccc(-c4nnc(-c5ccccc5)s4)cc32)c(C)c1C(=O)N1CCN(C)CC1 [Example 2] | – |
| 1.16 µM | – | 25.4 µM | 65% | – | – | Cc1[nH]c(/C=C2\C(=O)Nc3ccc(-c4ccc(-c5ccccc5)s4)cc32)c(C)c1C(=O)N1CCN(C)CC1 [Example 3] | – |
| 0.6 µM | 2.28 µM | 6.25 µM | 94% | 5.35 µM | 45% | CCN(CC)CCNC(=O)c1c(C)[nH]c(/C=C2\C(=O)Nc3ccc(-c4cnn(-c5ccccc5)c4)cc32)c1C [Example 4] | IC50 (A549 CSC): 4.83 µM |
| 30.5 µM | – | – | – | – | – | CCN(CC)CCNC(=O)c1c(C)[nH]c(/C=C2\C(=O)Nc3cc(-c4ccc(-c5ccccc5)s4)ccc32)c1C [Example 15] | activity at 5 µM (p-AMPK Thr172; 5 uM): 150%; activity at 5 µM (p-RPS6 Ser235/236; 5 uM): 5%; activity at 5 µM (p-RPS6 Ser240/244; 5 uM): 56% |
| 27.6 µM | – | 7.35 µM | 56% | – | 32% | CCN(CC)CCNC(=O)c1c(C)[nH]c(/C=C2\C(=O)Nc3ccc(-c4ncc(-c5ccccc5)o4)cc32)c1C [Example 19] | IC50 (A549 CSC): 0.35 µM |
| 3.46 µM | 6.57 µM | 3.01 µM | 100% | 2.94 µM | 55% | CCN(CC)CCNC(=O)c1c(C)[nH]c(/C=C2\C(=O)Nc3ccc(-c4ccnn4-c4ccccc4)cc32)c1C [Example 22] | IC50 (ACHN CSC): 1.17 µM; IC50 (A549 CSC): 5.54 µM |
| 0.83 µM | – | 2.51 µM | – | – | – | CCN(CC)CCNC(=O)c1c(C)[nH]c(/C=C2\C(=O)Nc3ccc(-c4ccc(-c5cccs5)s4)cc32)c1C [Example 27] | activity at 5 µM (p-AMPK Thr172; 5 uM): 21%; activity at 5 µM (p-RPS6 Ser235/236; 5 uM): 5%; activity at 5 µM (p-RPS6 Ser240/244; 5 uM): 41% |
| – | – | – | – | – | – | Cc1[nH]c(/C=C2\C(=O)Nc3cc(-c4ccc(-c5ccccc5)s4)ccc32)c(C)c1C(=O)N1CCN(C)CC1 [Example 29] | activity at 5 µM (p-AMPK Thr172; 5 uM): 108%; activity at 5 µM (p-RPS6 Ser235/236; 5 uM): 36%; activity at 5 µM (p-RPS6 Ser240/244; 5 uM): 68% |
| 0.05 µM | 1.24 µM | 0.51 µM | 86% | 1.72 µM | 36% | CCN(CC)CCNC(=O)c1c(C)[nH]c(/C=C2\C(=O)Nc3ccc(-c4cnn(-c5ccccn5)c4)cc32)c1C [Example 32] | IC50 (ACHN CSC): 0.13 µM; IC50 (A549 CSC): 2.53 µM |
| 41.9 µM | – | – | – | – | – | Cc1[nH]c(/C=C2\C(=O)Nc3cc(-c4csc(-c5ccccc5)n4)ccc32)c(C)c1C(=O)N1CCOCC1 [Example 36] | activity at 5 µM (p-AMPK Thr172; 5 uM): 118%; activity at 5 µM (p-RPS6 Ser235/236; 5 uM): 4%; activity at 5 µM (p-RPS6 Ser240/244; 5 uM): 44% |
| 2.57 µM | 10.4 µM | 4.22 µM | 68% | 16 µM | 32% | CCN(CC)CCNC(=O)c1c(C)[nH]c(/C=C2\C(=O)Nc3ccc(-c4cnn(C5CCOCC5)c4)cc32)c1C [Example 47] | – |
| – | – | – | 65% | – | 7% | Cc1[nH]c(/C=C2\C(=O)Nc3ccc(-c4cnn(-c5ccccc5)c4)cc32)c(C)c1C(=O)NCC1(N)CCCC1 [Example 93] | – |
| – | – | – | 140% | – | 17% | Cc1[nH]c(/C=C2\C(=O)Nc3ccc(-c4cnn(-c5ccccc5)c4)cc32)c(C)c1C(=O)NC1CCNCC1 [Example 94] | – |
| – | – | – | 134% | – | 22% | Cc1[nH]c(/C=C2\C(=O)Nc3ccc(-c4cnn(-c5ccccc5)c4)cc32)c(C)c1C(=O)NC1[C@H]2CNC[C@@H]12 (stereo partly drawn) [Example 95] | – |
| – | – | – | 69% | – | -13% | Cc1[nH]c(/C=C2\C(=O)Nc3ccc(-c4cnn(-c5ccccc5)c4)cc32)c(C)c1C(=O)NC1CNCC(c2ccccc2)C1 (stereo not drawn) [Example 96] | – |
| – | – | – | 107% | – | 6% | Cc1[nH]c(/C=C2\C(=O)Nc3ccc(-c4cnn(-c5ccccc5)c4)cc32)c(C)c1C(=O)NC1(CN2CCCCC2)CC1 [Example 97] | – |
| – | – | – | 25% | – | -2% | Cc1[nH]c(/C=C2\C(=O)Nc3ccc(-c4cnn(-c5ccccc5)c4)cc32)c(C)c1C(=O)NCCc1ncc[nH]1 [Example 98] | – |
| – | – | – | 79% | – | -11% | Cc1[nH]c(/C=C2\C(=O)Nc3ccc(-c4cnn(-c5ccccc5)c4)cc32)c(C)c1C(=O)NCc1nc2ccccc2[nH]1 [Example 99] | – |
| – | – | – | 126% | – | 9% | Cc1[nH]c(/C=C2\C(=O)Nc3ccc(-c4cnn(-c5ccccc5)c4)cc32)c(C)c1C(=O)NC[C@H]1CCCN1 [Example 100] | – |
| – | – | – | 94% | – | 13% | Cc1[nH]c(/C=C2\C(=O)Nc3ccc(-c4cnn(-c5ccccc5)c4)cc32)c(C)c1C(=O)NC[C@@H]1CCCN1 [Example 101] | – |
| – | – | 22.6 µM | – | – | – | COc1ncccc1-c1cccc2c1/C(=C/c1[nH]c(C)cc1C)C(=O)N2 [Example 271] | activity at 5 µM (p-AMPK Thr172; 5 uM compound, Western blot): 105%; activity at 5 µM (p-RPS6 Ser235/236; 5 uM compound, Western blot): 67%; activity at 5 µM (p-RPS6 Ser240/244; 5 uM compound, Western blot): 67% |
| – | 26.9 µM | 28.1 µM | – | 25.2 µM | – | Cc1cc(C)c(/C=C2\C(=O)Nc3c2cccc3-c2cncnc2)[nH]1 [Example 276] | activity at 5 µM (p-AMPK Thr172; 5 uM compound, Western blot): 113%; activity at 5 µM (p-RPS6 Ser235/236; 5 uM compound, Western blot): 51%; activity at 5 µM (p-RPS6 Ser240/244; 5 uM compound, Western blot): 50% |
| – | 28.1 µM | 35.3 µM | – | 21.1 µM | – | COc1ncc(-c2cccc3c2/C(=C/c2[nH]c(C)cc2C)C(=O)N3)cn1 [Example 277] | activity at 5 µM (p-AMPK Thr172; 5 uM compound, Western blot): 145%; activity at 5 µM (p-RPS6 Ser235/236; 5 uM compound, Western blot): 77%; activity at 5 µM (p-RPS6 Ser240/244; 5 uM compound, Western blot): 75% |
| – | 16.8 µM | 39.7 µM | – | 16.3 µM | – | Cc1cc(C)c(/C=C2\C(=O)Nc3cccc(-c4cncnc4)c32)[nH]1 [Example 278] | activity at 5 µM (p-AMPK Thr172; 5 uM compound, Western blot): 198%; activity at 5 µM (p-RPS6 Ser235/236; 5 uM compound, Western blot): 44%; activity at 5 µM (p-RPS6 Ser240/244; 5 uM compound, Western blot): 43% |
| – | 21 µM | 25.8 µM | – | 19.7 µM | – | Cc1cc(C)c(/C=C2\C(=O)Nc3c2cccc3-c2cncc3ccccc23)[nH]1 [Example 279] | activity at 5 µM (p-AMPK Thr172; 5 uM compound, Western blot): 108%; activity at 5 µM (p-RPS6 Ser235/236; 5 uM compound, Western blot): 86%; activity at 5 µM (p-RPS6 Ser240/244; 5 uM compound, Western blot): 83% |
| – | – | – | – | 23.5 µM | – | Cc1cc(C)c(/C=C2\C(=O)Nc3c2cccc3-c2ccncc2)[nH]1 [Example 281] | activity at 5 µM (p-AMPK Thr172; 5 uM compound, Western blot): 83%; activity at 5 µM (p-RPS6 Ser235/236; 5 uM compound, Western blot): 68%; activity at 5 µM (p-RPS6 Ser240/244; 5 uM compound, Western blot): 65% |
